In article PMC11012124, “Synthesis of Novel Triazine-Based Chalcones and 8,9-dihydro-7H-pyrimido[4,5-b][1,4]diazepines as Potential Leads in the Search of Anticancer, Antibacterial and Antifungal Agents” (International Journal of Molecular Sciences, 2024):

Tests used:
Assay in all cases: cells
[1] = system: UACC-62; conditions: Homo sapiens, UACC-62, 48 h
[2] = system: EKVX; conditions: Homo sapiens, 48 h
[3] = system: SNB-19; conditions: Homo sapiens, SNB-19, 48 h
[4] = system: U251; conditions: Homo sapiens, U-251, 48 h
[5] = system: NCI-H522; conditions: Homo sapiens, NCI-H522, 48 h
[6] = system: MDA-MB-231/ATCC; conditions: Homo sapiens, MDA-MB-231, 48 h
[7] = system: CAKI-1; conditions: Homo sapiens, CAKI-1, 48 h
[8] = system: SK-MEL-28; conditions: Homo sapiens, SK-MEL-28, 48 h
[9] = system: K-562; conditions: Homo sapiens, K562, 48 h
[10] = system: CCRF-CEM; conditions: Homo sapiens, 48 h
[11] = system: HCC-2998; conditions: Homo sapiens, HCC 2998, 48 h
[12] = system: HT29; conditions: Homo sapiens, HT-29, 48 h
[13] = system: HL-60(TB); conditions: Homo sapiens, HL-60, 48 h
[14] = system: SN12C; conditions: Homo sapiens, 48 h
[15] = system: T-47D; conditions: Homo sapiens, T47D, 48 h
[16] = system: HOP-92; conditions: Homo sapiens, HOP-92, 48 h
[17] = system: UO-31; conditions: Homo sapiens, UO-31, 48 h
[18] = system: KM12; conditions: Homo sapiens, KM12, 48 h
[19] = system: 786-0; conditions: Homo sapiens, 786-0, 48 h
[20] = system: SF-539; conditions: Homo sapiens, SF-539, 48 h
[21] = system: MDA-MB-468; conditions: Homo sapiens, MDA-MB-468, 48 h
[22] = system: OVCAR-3; conditions: Homo sapiens, OVCAR-3, 48 h
[23] = system: MOLT-4; conditions: Homo sapiens, MOLT-4, 48 h
[24] = system: SNB-75; conditions: Homo sapiens, SNB-75, 48 h
[25] = system: PC-3; conditions: Homo sapiens, PC-3, 48 h
[26] = system: UACC-257; conditions: Homo sapiens, UACC-257, 48 h
[27] = system: NCI-H460; conditions: Homo sapiens, NCI-H460, 48 h
[28] = system: COLO 205; conditions: Homo sapiens, COLO 205, 48 h
[29] = system: A498; conditions: Homo sapiens, A498, 48 h
[30] = system: HCT-116; conditions: Homo sapiens, HCT-116, 48 h
[31] = system: M14; conditions: Homo sapiens, M14, 48 h
[32] = system: A549/ATCC; conditions: Homo sapiens, A549, 48 h
[33] = system: HS 578T; conditions: Homo sapiens, 48 h
[34] = system: SF-268; conditions: Homo sapiens, SF-268, 48 h
[35] = system: SK-MEL-2; conditions: Homo sapiens, SK-MEL-2, 48 h
[36] = system: LOX IMVI; conditions: Homo sapiens, 48 h
[37] = system: SK-MEL-5; conditions: Homo sapiens, SK-MEL-5, 48 h

CN(C)c1nc(NCCNS(=O)(=O)c2ccc(C(=O)/C=C/c3ccc(F)cc3)cc2)nc(Nc2ccc(F)cc2)n1 [24f]
GI50 [1]: 3.57 µM | CC50 ([1]; read-out: LC50): 14.6 µM | GI50 [2]: 2.95 µM | CC50 ([2]; read-out: LC50): 10.9 µM | GI50 [3]: 4.58 µM | CC50 ([3]; read-out: LC50): 16.8 µM | GI50 ([4]; U251, 48 h): 1.99 µM | CC50 ([4]; read-out: LC50): 4.41 µM | GI50 [5]: 2.81 µM | CC50 ([5]; read-out: LC50): 8.9 µM | GI50 [6]: 2.64 µM | CC50 ([6]; read-out: LC50): 8.39 µM | GI50 [7]: 3.01 µM | CC50 ([7]; read-out: LC50): 12.7 µM | GI50 [8]: 3.6 µM | CC50 ([8]; read-out: LC50): 13.7 µM | GI50 ([9]; K-562, 48 h): 2.42 µM | CC50 ([9]; read-out: LC50): 6.79 µM | GI50 [10]: 3.42 µM | CC50 ([10]; read-out: LC50): > 100 µM | GI50 [11]: 1.8 µM | CC50 ([11]; read-out: LC50): 3.45 µM | GI50 [12]: 1.9 µM | CC50 ([12]; read-out: LC50): 3.65 µM | GI50 [13]: 2.04 µM | CC50 ([13]; read-out: LC50): 6.34 µM | GI50 [14]: 1.7 µM | CC50 ([14]; read-out: LC50): 3.36 µM | GI50 [15]: 3.02 µM | CC50 ([15]; read-out: LC50): 11.7 µM | GI50 [16]: 2.49 µM | CC50 ([16]; read-out: LC50): 6.51 µM | GI50 [17]: 2.9 µM | CC50 ([17]; read-out: LC50): 11.9 µM | GI50 [18]: 2 µM | CC50 ([18]; read-out: LC50): 4.41 µM | GI50 [19]: 2.56 µM | CC50 ([19]; read-out: LC50): 6.3 µM | GI50 [20]: 2.52 µM | CC50 ([20]; read-out: LC50, SF-539, 48 h): 6.78 µM | GI50 [21]: 2.55 µM | CC50 ([21]; read-out: LC50): 8.09 µM | GI50 [22]: 1.74 µM | CC50 ([22]; read-out: LC50): 3.24 µM | GI50 [23]: 2.5 µM | CC50 ([23]; read-out: LC50): 6.49 µM | GI50 [24]: 2.88 µM | CC50 ([24]; read-out: LC50): 16 µM | GI50 [25]: 2.76 µM | CC50 ([25]; read-out: LC50): 10.6 µM | GI50 [26]: 3.61 µM | CC50 ([26]; read-out: LC50): 15.2 µM | GI50 [27]: 2.45 µM | CC50 ([27]; read-out: LC50): 6.93 µM | GI50 [28]: 2.38 µM | CC50 ([28]; read-out: LC50): 6.56 µM | GI50 [29]: 6.21 µM | CC50 ([29]; read-out: LC50): 19.3 µM | GI50 [30]: 1.6 µM | CC50 ([30]; read-out: LC50): 3.01 µM | GI50 [31]: 2.6 µM | CC50 ([31]; read-out: LC50): 8.28 µM | GI50 [32]: 3.41 µM | CC50 ([32]; read-out: LC50): 14.2 µM | GI50 [33]: 6.3 µM | CC50 ([33]; read-out: LC50): 71.5 µM | GI50 [34]: 3.89 µM | CC50 ([34]; read-out: LC50): 16.4 µM | GI50 [35]: 2.77 µM | CC50 ([35]; read-out: LC50): 8.31 µM | GI50 [36]: 1.66 µM | CC50 ([36]; read-out: LC50, LOX IMVI, 48 h): 3.07 µM | GI50 [37]: 2.91 µM | CC50 ([37]; read-out: LC50): 11.1 µM
